{"source": "ChEMBL document CHEMBL4043168", "about": "“The design and SAR of a novel series of 2-aminopyridine based LRRK2 inhibitors” (Bioorg Med Chem Lett, 2017)", "key": {"[1]": {"molecular_target": "Dual specificity mitogen-activated protein kinase kinase 3 (Homo sapiens) (UniProt P46734)", "assay": "Inhibition of MAP2K3 conserved Lys2 (DVKPSNVLINK) in human PBMC at 1 uM"}, "[2]": {"molecular_target": "Mitogen-activated protein kinase kinase kinase 4 (Homo sapiens) (UniProt Q9Y6R4)", "assay": "Inhibition of MAP3K4 conserved Lys2 (DIKGANIFLTSSGLIK) in human PBMC at 0.1 uM"}, "[3]": {"molecular_target": "Serine/threonine-protein kinase WNK1 (Homo sapiens) (UniProt Q9H4A3)", "sequence (Q9H4A3 whole entry, looked up)": "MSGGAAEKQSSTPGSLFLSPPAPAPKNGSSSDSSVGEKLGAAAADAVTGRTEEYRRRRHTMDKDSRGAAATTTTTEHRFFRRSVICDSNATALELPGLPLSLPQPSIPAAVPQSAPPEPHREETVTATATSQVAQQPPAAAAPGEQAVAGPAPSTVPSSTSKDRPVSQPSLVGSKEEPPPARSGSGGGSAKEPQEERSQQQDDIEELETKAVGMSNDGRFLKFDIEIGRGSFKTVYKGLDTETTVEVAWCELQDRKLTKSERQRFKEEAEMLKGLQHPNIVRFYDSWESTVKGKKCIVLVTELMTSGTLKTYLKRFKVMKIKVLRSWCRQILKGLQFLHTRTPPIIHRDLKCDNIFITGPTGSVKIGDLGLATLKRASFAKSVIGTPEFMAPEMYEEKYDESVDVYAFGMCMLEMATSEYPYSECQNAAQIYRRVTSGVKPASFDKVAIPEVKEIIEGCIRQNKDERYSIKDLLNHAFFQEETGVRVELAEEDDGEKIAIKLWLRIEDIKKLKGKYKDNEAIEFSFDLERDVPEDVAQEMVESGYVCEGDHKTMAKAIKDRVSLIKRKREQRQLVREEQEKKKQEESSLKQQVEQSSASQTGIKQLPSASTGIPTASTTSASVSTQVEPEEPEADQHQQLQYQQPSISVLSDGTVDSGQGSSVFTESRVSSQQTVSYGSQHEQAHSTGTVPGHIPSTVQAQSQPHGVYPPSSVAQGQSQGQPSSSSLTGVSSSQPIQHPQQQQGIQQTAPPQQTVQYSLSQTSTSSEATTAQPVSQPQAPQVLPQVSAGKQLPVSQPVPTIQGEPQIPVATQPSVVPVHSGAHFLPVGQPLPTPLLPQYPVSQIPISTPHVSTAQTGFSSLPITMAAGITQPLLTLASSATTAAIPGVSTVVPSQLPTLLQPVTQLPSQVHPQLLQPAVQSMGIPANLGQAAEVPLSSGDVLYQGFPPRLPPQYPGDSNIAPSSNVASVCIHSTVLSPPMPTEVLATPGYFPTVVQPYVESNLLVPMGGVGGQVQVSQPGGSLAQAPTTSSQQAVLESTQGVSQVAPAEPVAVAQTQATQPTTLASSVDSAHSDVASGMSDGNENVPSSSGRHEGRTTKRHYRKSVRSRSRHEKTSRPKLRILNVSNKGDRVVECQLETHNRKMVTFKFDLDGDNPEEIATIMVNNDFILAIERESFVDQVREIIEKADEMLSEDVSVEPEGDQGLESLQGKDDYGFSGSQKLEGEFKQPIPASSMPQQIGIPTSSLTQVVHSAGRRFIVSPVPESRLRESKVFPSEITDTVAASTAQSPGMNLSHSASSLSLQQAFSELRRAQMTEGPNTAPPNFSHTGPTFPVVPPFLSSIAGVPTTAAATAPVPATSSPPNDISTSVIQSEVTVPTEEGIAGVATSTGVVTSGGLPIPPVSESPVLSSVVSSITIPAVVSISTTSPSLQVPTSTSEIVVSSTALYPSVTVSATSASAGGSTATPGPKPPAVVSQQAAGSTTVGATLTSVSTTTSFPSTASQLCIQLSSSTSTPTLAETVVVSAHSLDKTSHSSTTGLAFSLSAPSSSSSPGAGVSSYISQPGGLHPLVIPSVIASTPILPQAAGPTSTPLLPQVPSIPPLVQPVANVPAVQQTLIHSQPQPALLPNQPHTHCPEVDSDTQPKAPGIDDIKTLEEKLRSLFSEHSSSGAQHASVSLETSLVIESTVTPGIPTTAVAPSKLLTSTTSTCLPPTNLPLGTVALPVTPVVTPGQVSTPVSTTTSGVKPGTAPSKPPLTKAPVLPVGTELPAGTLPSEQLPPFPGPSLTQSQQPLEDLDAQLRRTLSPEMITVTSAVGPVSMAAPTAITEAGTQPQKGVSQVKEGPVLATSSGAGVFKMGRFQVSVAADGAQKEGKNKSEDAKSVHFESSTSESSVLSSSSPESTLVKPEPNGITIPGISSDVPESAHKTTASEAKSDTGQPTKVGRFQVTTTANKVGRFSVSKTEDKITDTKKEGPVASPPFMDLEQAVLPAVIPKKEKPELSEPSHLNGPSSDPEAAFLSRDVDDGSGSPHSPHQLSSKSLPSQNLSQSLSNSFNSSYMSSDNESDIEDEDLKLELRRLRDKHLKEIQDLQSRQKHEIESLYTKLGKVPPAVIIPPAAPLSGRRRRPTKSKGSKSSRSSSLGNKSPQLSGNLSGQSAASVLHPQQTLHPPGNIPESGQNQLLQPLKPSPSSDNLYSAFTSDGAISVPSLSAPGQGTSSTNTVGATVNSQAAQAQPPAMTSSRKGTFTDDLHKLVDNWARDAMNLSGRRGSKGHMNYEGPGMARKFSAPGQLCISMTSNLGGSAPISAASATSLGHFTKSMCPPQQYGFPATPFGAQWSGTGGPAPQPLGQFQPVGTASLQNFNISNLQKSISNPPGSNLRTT", "assay": "Inhibition of Wnk1 conserved Lys2 (DLKCDNIFITGPTGSVK) in human PBMC at 1 uM"}, "[4]": {"molecular_target": "STE20-like serine/threonine-protein kinase (Homo sapiens) (UniProt Q9H2G2)", "assay": "Inhibition of SLK conserved Lys2 (DLKAGNILFTLDGDIK) in human PBMC at 0.1 uM"}, "[5]": {"molecular_target": "Mitogen-activated protein kinase kinase kinase 3 (Homo sapiens) (UniProt Q99759)", "assay": "Inhibition of MAP3K3 conserved Lys2 (DIKGANILR) in human PBMC at 0.1 uM"}, "[6]": {"molecular_target": "Proto-oncogene tyrosine-protein kinase Src (Homo sapiens) (UniProt P12931)", "sequence (P12931 2-536 limits assumed)": "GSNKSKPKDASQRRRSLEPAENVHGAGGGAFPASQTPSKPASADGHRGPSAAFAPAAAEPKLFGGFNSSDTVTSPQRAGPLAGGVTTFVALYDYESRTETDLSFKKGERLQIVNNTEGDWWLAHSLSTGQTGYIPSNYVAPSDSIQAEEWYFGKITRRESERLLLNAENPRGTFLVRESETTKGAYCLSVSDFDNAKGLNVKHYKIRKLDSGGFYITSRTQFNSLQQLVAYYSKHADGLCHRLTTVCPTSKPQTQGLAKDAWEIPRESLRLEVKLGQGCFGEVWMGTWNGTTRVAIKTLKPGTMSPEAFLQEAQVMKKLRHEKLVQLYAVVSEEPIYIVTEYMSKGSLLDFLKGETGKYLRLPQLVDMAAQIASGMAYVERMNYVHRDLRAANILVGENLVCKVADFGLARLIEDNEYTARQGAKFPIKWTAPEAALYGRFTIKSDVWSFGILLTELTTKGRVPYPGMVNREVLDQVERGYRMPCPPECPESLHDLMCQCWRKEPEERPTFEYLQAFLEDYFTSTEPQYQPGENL", "assay": "Inhibition of SRC ATP binding site (QGAKFPIKWTAPEAALYGR) in human PBMC at 0.1 uM"}, "[7]": {"molecular_target": "T1, Interleukin-1 receptor-associated kinase 4 (Homo sapiens) (UniProt Q9NWZ3)", "T1 sequence (whole entry)": "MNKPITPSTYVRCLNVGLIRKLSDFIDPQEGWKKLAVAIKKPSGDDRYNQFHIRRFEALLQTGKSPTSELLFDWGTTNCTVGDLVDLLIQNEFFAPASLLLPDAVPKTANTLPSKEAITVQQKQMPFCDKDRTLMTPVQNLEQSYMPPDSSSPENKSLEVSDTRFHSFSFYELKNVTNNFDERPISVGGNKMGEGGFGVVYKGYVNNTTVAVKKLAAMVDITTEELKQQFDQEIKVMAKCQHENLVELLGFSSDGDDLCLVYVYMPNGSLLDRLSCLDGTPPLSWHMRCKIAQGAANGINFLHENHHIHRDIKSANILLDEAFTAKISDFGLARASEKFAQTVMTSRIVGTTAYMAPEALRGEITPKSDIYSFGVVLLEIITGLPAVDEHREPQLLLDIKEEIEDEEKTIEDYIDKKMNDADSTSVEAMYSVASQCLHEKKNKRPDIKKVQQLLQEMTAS", "assay": "Inhibition of IRAK4 conserved Lys2 (DIKSANILLDEAFTAK) in human PBMC at 0.1 uM"}, "[8]": {"molecular_target": "Serine/threonine-protein kinase Nek4 (Homo sapiens) (UniProt P51957)", "assay": "Inhibition of NEK4 conserved Lys2 (DLKTQNVFLTR) in human PBMC at 1 uM"}, "Homo sapiens": {"species": "Homo sapiens", "assay": "Inhibition of p70S6K conserved Lys2 (DLKPENIMLNHQGHVK) in human PBMC at 1 uM"}, "[9]": {"molecular_target": "Ribosomal protein S6 kinase alpha-4 (Homo sapiens) (UniProt O75676)", "assay": "Inhibition of MSK2 domain1 conserved Lys2 (DIKLENILLDSNGHVVLTDFGLSK) in human PBMC at 0.1 uM"}, "[10]": {"molecular_target": "RAC-beta serine/threonine-protein kinase (Homo sapiens) (UniProt P31751)", "assay": "Inhibition of AKT2 labeling at ATP binding site (GTFGKVILVR) in human PBMC at 0.1 uM"}, "[11]": {"molecular_target": "Mitogen-activated protein kinase kinase kinase kinase 2 (Homo sapiens) (UniProt Q12851)", "assay": "Inhibition of GCK conserved Lys2 (DIKGANLLLTLQGDVK) in human PBMC at 0.1 uM"}, "[12]": {"molecular_target": "Mitogen-activated protein kinase kinase kinase 7 (Homo sapiens) (UniProt O43318)", "sequence (O43318 whole entry)": "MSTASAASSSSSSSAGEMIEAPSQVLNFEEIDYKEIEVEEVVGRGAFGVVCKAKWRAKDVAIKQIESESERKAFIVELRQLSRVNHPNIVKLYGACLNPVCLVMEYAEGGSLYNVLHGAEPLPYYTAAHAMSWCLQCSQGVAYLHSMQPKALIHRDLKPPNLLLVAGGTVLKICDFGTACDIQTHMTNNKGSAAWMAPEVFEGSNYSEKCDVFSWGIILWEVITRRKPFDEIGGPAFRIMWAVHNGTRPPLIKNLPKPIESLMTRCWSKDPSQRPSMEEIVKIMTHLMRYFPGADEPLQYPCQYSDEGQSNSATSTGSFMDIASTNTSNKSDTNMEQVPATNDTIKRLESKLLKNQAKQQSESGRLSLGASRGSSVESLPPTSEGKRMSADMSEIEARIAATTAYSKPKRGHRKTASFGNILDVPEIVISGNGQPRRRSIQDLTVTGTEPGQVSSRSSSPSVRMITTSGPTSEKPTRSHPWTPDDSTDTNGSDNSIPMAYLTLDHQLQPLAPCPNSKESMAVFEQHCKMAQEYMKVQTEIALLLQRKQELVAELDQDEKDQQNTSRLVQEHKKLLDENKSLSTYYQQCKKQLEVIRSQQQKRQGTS", "assay": "Inhibition of TAK1 conserved Lys2 (DLKPPNLLLVAGGTVLK) in human PBMC at 0.1 uM"}, "[13]": {"molecular_target": "Mitogen-activated protein kinase 14 (Homo sapiens) (UniProt Q16539)", "assay": "Inhibition of p38a (QELNKTIWEVPER) in human PBMC at 0.1 uM"}, "[14]": {"molecular_target": "Cyclin-dependent kinase 5 (Homo sapiens) (UniProt Q00535)", "sequence (Q00535 whole entry, looked up)": "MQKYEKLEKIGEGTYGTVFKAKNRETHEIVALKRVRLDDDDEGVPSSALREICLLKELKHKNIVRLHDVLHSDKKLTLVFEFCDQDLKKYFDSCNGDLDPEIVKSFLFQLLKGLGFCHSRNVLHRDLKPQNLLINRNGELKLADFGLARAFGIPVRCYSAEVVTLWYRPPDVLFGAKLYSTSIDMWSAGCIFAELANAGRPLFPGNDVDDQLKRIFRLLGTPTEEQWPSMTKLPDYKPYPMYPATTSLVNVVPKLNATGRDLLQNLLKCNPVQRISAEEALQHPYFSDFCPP", "assay": "Inhibition of CDK5 labeling at conserved Lys1 (NRETHEIVALKR) in human PBMC at 0.1 uM"}, "[15]": {"molecular_target": "Serine/threonine-protein kinase B-raf (Homo sapiens) (UniProt P15056)", "assay": "Inhibition of BRAF labeling at conserved Lys2 (DLKSNNIFLHEDLTVK) in human PBMC at 0.1 uM"}, "[16]": {"molecular_target": "Serine/threonine-protein kinase Chk2 (Homo sapiens) (UniProt O96017)", "assay": "Inhibition of CHK2 labeling at conserved Lys2 (DLKPENVLLSSQEEDCLIK) in human PBMC at 0.1 uM"}, "[17]": {"molecular_target": "PAN2-PAN3 deadenylation complex subunit PAN3 (Homo sapiens) (UniProt Q58A45)", "assay": "Inhibition of PAN3 Protein Kinase Domain (VMDPTKILITGK) in human PBMC at 1 uM"}, "[18]": {"molecular_target": "Mitogen-activated protein kinase 12 (Homo sapiens) (UniProt P53778)", "assay": "Inhibition of p38g conserved Lys2 (DLKPGNLAVNEDCELK) in human PBMC at 1 uM"}, "[19]": {"molecular_target": "Ribosomal protein S6 kinase alpha-2 (Homo sapiens) (UniProt Q15349)", "assay": "Inhibition of RSK3 domain1 conserved Lys2 (DLKPENILLDEEGHIKITDFGLSK) in human PBMC at 0.1 uM"}, "[20]": {"molecular_target": "Serine/threonine-protein kinase Nek9 (Homo sapiens) (UniProt Q8TD19)", "sequence (Q8TD19 whole entry)": "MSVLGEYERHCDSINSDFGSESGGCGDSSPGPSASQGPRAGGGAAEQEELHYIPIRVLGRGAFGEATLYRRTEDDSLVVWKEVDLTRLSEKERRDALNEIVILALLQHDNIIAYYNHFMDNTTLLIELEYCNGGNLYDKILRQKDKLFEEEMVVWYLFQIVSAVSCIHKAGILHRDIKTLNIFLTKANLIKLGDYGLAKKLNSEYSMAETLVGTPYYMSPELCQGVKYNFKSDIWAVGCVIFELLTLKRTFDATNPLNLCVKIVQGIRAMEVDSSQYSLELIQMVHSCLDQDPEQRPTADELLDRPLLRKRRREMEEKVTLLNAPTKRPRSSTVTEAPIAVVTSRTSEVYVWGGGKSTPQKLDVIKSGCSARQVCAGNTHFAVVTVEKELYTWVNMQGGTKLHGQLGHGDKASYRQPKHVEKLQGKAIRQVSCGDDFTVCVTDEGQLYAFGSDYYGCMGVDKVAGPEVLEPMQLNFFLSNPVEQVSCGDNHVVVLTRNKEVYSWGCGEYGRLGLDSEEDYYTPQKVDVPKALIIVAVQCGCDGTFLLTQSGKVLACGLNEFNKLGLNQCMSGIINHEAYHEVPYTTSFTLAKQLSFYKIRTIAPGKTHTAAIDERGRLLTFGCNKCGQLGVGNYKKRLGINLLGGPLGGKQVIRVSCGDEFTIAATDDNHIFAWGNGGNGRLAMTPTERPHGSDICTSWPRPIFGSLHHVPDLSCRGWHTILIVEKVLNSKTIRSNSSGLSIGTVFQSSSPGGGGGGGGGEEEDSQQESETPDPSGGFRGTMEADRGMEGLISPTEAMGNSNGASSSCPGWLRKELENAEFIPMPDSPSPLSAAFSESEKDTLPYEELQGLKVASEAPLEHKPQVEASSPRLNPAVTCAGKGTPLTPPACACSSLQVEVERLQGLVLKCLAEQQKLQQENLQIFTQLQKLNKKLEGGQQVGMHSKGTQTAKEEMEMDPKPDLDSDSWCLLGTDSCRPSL", "assay": "Inhibition of NEK9 conserved Lys2 (DIKTLNIFLTK) in human PBMC at 0.1 uM"}, "[21]": {"molecular_target": "Proto-oncogene tyrosine-protein kinase Src (Homo sapiens) (UniProt P12931)", "assay": "Inhibition of SRC ATP binding site (QGAKFPIKWTAPEAALYGR) in human PBMC at 1 uM"}, "[22]": {"molecular_target": "Serine/threonine-protein kinase Nek8 (Homo sapiens) (UniProt Q86SG6)", "assay": "Inhibition of NEK8 conserved Lys2 (DLKTQNILLDK) in human PBMC at 1 uM"}, "[23]": {"molecular_target": "Tyrosine-protein kinase HCK (Homo sapiens) (UniProt P08631)", "assay": "Inhibition of HCK activation Loop (EGAKFPIKWTAPEAINFGSFTIK) in human PBMC at 1 uM"}, "[24]": {"molecular_target": "Cyclin-dependent kinase 5 (Homo sapiens) (UniProt Q00535)", "assay": "Inhibition of CDK5 labeling at conserved Lys2 (DLKPQNLLINR) in human PBMC at 0.1 uM"}}, "data": [{"smiles": "CC(C)n1cc(-c2cc(-c3ccc(CN4CCOCC4)cc3)cnc2N)nn1", "values": [{"measurement": "inhibition", "setting": "[1]", "result": -9.2, "unit": "%"}, {"measurement": "inhibition", "setting": "[2]", "result": 3.8, "unit": "%"}, {"measurement": "inhibition", "setting": "[3]", "result": 2.2, "unit": "%"}, {"measurement": "inhibition", "setting": "[4]", "result": 24.4, "unit": "%"}, {"measurement": "inhibition", "setting": "[5]", "result": 23.2, "unit": "%"}, {"measurement": "inhibition", "setting": "[6]", "result": -4.4, "unit": "%"}, {"measurement": "inhibition", "setting": "[7]", "result": -1.8, "unit": "%"}, {"measurement": "inhibition", "setting": "[8]", "result": -1.7, "unit": "%"}, {"measurement": "inhibition", "setting": "Homo sapiens", "result": 6.9, "unit": "%"}, {"measurement": "inhibition", "setting": "[9]", "result": 31.2, "unit": "%"}, {"measurement": "inhibition", "setting": "[10]", "result": 17.1, "unit": "%"}, {"measurement": "inhibition", "setting": "[11]", "result": 10.9, "unit": "%"}, {"measurement": "inhibition", "setting": "[12]", "result": -0.4, "unit": "%"}, {"measurement": "inhibition", "setting": "[13]", "result": 8.2, "unit": "%"}, {"measurement": "inhibition", "setting": "[14]", "result": -1.1, "unit": "%"}, {"measurement": "inhibition", "setting": "[15]", "result": 12.5, "unit": "%"}, {"measurement": "inhibition", "setting": "[16]", "result": -4.8, "unit": "%"}, {"measurement": "inhibition", "setting": "[17]", "result": 0.1, "unit": "%"}, {"measurement": "inhibition", "setting": "[18]", "result": 14, "unit": "%"}, {"measurement": "inhibition", "setting": "[19]", "result": 13, "unit": "%"}, {"measurement": "inhibition", "setting": "[20]", "result": 26.5, "unit": "%"}, {"measurement": "inhibition", "setting": "[21]", "result": -2.3, "unit": "%"}, {"measurement": "inhibition", "setting": "[22]", "result": 17.1, "unit": "%"}, {"measurement": "inhibition", "setting": "[23]", "result": -2.2, "unit": "%"}, {"measurement": "inhibition", "setting": "[24]", "result": -3.3, "unit": "%"}]}]}
